PMC12084297, “Cytoplasmic connexin43-microtubule interactions promote glioblastoma stem-like cell maintenance and tumorigenicity” (Cell Death & Disease, 2025)

What was measured:
Cx43 [1] = test: Cx43 expression in co-IP input, immunoblot, VTC-037 GSCs; type: cell-based, human; conditions: 50 μM, 24 h
Description: (§1) Cells were lysed in RIPA buffer (0.1% sodium dodecyl sulphate, 50 mM Tris pH 7.4, 150 mM NaCl, 1 mM EDTA, 1% Triton X-100, 1% deoxycholic acid, 200 μM Na3VO4, and 1 mM NaF) supplemented with Halt^TM Protease and Phosphatase Inhibitor Cocktail (Thermo Fisher). Lysates were sonicated prior to centrifugation at 4 °C for 20 min at 10,000 x g. Protein concentration was quantified using the DC protein assay (Bio-Rad Laboratories) and a standard curve obtained with increasing concentrations of Bovine Serum Albumin (BSA; Fisher Scientific). Protein samples were normalized to 20 μg total protein per lane and resolved by SDS-PAGE electrophoresis. 4X Bolt LDS sample buffer supplemented with 400 mM DTT (final concentration 1X Bolt LDS with 100 mM DTT) was added to samples before heating at 70 °C for 10 min. […] Membranes were imaged on a ChemiDoc™ imaging system, and analyzed with Image Lab software (Bio-Rad Laboratories). […]
Prior to lysis, cross-linking was completed by incubating cells in DTBP (dimethyl 3,3’-dithiobispropionimidate; 2 mM in PBS) for 30 min at 37 °C followed by a glycine quench (100 mM glycine in PBS) for 15 min at room temperature. […] Protein concentration was quantified using the DC protein assay and a standard curve obtained with increasing concentrations of BSA, and 500 μg of total protein was used per reaction for co-IP. […]

VTC-001 GSCs = test: MTS viability, VTC-001 GSCs; type: cell-based, human; conditions: 4 days
Description: (§2) Cells were plated in 96-well plates (2000–5000 cells per well) and treated the following day with TMZ (10, 50, or 100 μM), antennapedia, JM2-scrambled, or JM2 (10, 50, or 100 μM). After 4 days, cell viability was monitored following addition of MTS reagent (Promega) according to manufacturer’s instructions. The absorbance at 490 nm was measured using a SpectraMax i3 or iD3 microplate reader (Molecular Devices). For the caspase 3/7 activity assay, cells were plated in 96-well plates (2000 cells per well) and treated with TMZ or peptides as described above. The activity of caspase 3/7 was measured after 48 h using the Caspase-Glo® 3/7 assay (Promega) following the manufacturer’s instructions. Fold change of caspase 3/7 activity was defined as the ratio of caspase 3/7 luminescence in treated cells compared to controls.

VTC-034 GSCs = test: MTS viability, VTC-034 GSCs; type: cell-based, human; conditions: VTC-034 adherent GSCs, 10, 50 or 100 μM, 4 days
Description: as §2

VTC-037 GSCs = test: MTS viability, VTC-037 GSCs; type: cell-based, human; conditions: 4 days
Description: as §2

Cx43 [2] = test: Cx43 protein expression, immunoblot, VTC-001 GSCs; type: cell-based, human; conditions: 50 μM, 24 h
Description: as §1, with “min. SDS-PAGE was run using NuPAGE Bis-Tris 4%–12% gradient gels (Thermo Fisher) with MES or MOPS running buffer according to manufacturer’s instructions. Spectra™ Multicolor Protein Ladder (Thermo Fisher) or Precision Plus Protein™ Kaleidoscope™ Prestained Protein Standards (Bio-Rad Laboratories) were included as protein ladders on the same gels.” for “min.”

Cx43 [3] = test: Cx43 protein expression, immunoblot, VTC-037 GSCs; type: cell-based, human; conditions: 50 μM, 24 h
Description: as §1, with “min. SDS-PAGE was run using NuPAGE Bis-Tris 4%–12% gradient gels (Thermo Fisher) with MES or MOPS running buffer according to manufacturer’s instructions. Spectra™ Multicolor Protein Ladder (Thermo Fisher) or Precision Plus Protein™ Kaleidoscope™ Prestained Protein Standards (Bio-Rad Laboratories) were included as protein ladders on the same gels.” for “min.”

Cx43 [4] = conditions: prior work with JM2; ref [41]; cited from earlier work
Text: Using JM2, a Cx43 mimetic peptide of Cx43 tubulin-binding domain, we confirm efficient and specific disruption of Cx43-microtubule interaction in GSCs together with decreased self-renewal abilities and enhanced killing of this cancer stem-like cell population, highlighting a novel tumorigenic role for Cx43 in GSCs, and GBM. Thermal shift assays reveal JM2 presents high affinity for both α- and β- tubulin. While chemotherapeutic drugs such as paclitaxel have been used to target microtubule functions as therapeutic agents, many of these therapeutic agents cause significant side-effects. M ...

Q: Which “Cx43 expression (co-IP input)” value (Cx43 [1]) does the source give for VFFKGVKDRVKGRSD [JM2] here?
A: does not affect Cx43 expression in GSCs

Q: What about the “GSC viability with JM2 alone in combination experiment (MTS)” value (VTC-001 GSCs; VTC-001 adherent GSCs, 100 μM) of the same sequence?
A: significantly decreased GSC viability

Q: What about the “GSC survival (MTS)” value (VTC-001 GSCs; VTC-001 adherent GSCs, 10, 50 or 100 μM) of the same sequence?
A: significantly decreased VTC-001, VTC-034, and VTC-037 GSC survival when cultured as adherent cells in a dose-dependent manner

Q: What about the “GSC survival (MTS)” value (VTC-034 GSCs) of the same sequence?
A: significantly decreased VTC-001, VTC-034, and VTC-037 GSC survival when cultured as adherent cells in a dose-dependent manner

Q: And the “GSC viability with JM2 alone in combination experiment (MTS)” value (VTC-037 GSCs; VTC-037 adherent GSCs, 100 μM)?
A: significantly decreased GSC viability

Q: And the “GSC survival (MTS)” value (VTC-037 GSCs; VTC-037 adherent GSCs, 10, 50 or 100 μM)?
A: significantly decreased VTC-001, VTC-034, and VTC-037 GSC survival when cultured as adherent cells in a dose-dependent manner

Q: And the Cx43 protein expression (Cx43 [2])?
A: without affecting Cx43 expression

Q: And the Cx43 protein expression (Cx43 [3])?
A: without affecting Cx43 expression

Q: What about the “Cx43 delivery to the cell surface” value (Cx43 [4]) of the same sequence?
A: a loss of Cx43 delivery to the cell surface due to increased Cx43/tubulin complexing
